Active and inactive are the calls of the source. The rule behind the calls is not given here.
Tested on: rodent carcinogenicity bioassays, tumor incidence
Assay: CCRIS carcinogenicity studies
Procedure, shortened: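 Archive of carcinogenicity, mutagenicity, tumor promotion and tumor inhibition results drawn from journals, NCI reports and other sources, expert-reviewed; covers 1985-2011 and is no longer updated.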

For c1ccccc1, the carcinogen call (Species: HUMAN, Route: INHALATION, DERMAL, Tumor Site: Type of Lesion: HEMATOPOIETIC SYSTEM (LEUKEMIA)) was “active; positive”, the carcinogen call (Species: MOUSE, Route: INHALATION, Dose: 0, 300 PPM 6 HR/D 5 D/WK FOR 16 WK (STUDY DURATION: LIFETIME), Tumor Site: Type of Lesion: HEMATOPOIETIC SYSTEM: LYMPHOMA) was “active; positive” and the carcinogen call (Species: MOUSE, Strain/Sex: B6C3F1/FEMALE, Route: GAVAGE, Dose: 0, 25, 50, 100 MG/KG IN CORN OIL 5 D/WK FOR 103 WK, Dose: 0, 25, 50, 100 MG/KG IN CORN OIL 5 D/WK FOR 103 WK, Tumor Site: Type of Lesion: LUNG: ALVEOLAR/BRONCHIOLAR CARCINOMA, ALVEOLAR/BRONCHIOLAR ADENOMA OR CARCINOMA, HEMATOPOIETIC SYSTEM: MALIGNANT LYMPHOM) was “active; positive”. The carcinogen call (Species: MOUSE, Strain/Sex: B6C3F1/MALE, Route: GAVAGE, Dose: 0, 25, 50, 100 MG/KG IN CORN OIL 5 D/WK FOR 103 WK, Dose: 0, 25, 50, 100 MG/KG IN CORN OIL 5 D/WK FOR 103 WK, Tumor Site: Type of Lesion: LUNG: ALVEOLAR/BRONCHIOLAR CARCINOMA, ALVEOLAR/BRONCHIOLAR ADENOMA, HEMATOPOIETIC SYSTEM: MALIGNANT LYMPHOMA, LEUKEMIA O) was “active; positive”, the carcinogen call (Species: MOUSE, Strain/Sex: C57BL/FEMALE, Route: INHALATION, Dose: 0, 300 PPM 6 HR/D 5 D/WK FOR 16 WK (STUDY DURATION: 64 WK), Tumor Site: Type of Lesion: LYMPHATIC SYSTEM: LYMPHOMA) was “active; positive” and the carcinogen call (Species: MOUSE, Strain/Sex: C57BL/FEMALE, Route: INHALATION, Dose: 0, 300 PPM 6 HR/D 5 D/WK FOR 16 WK (STUDY DURATION: 750 D), Tumor Site: Type of Lesion: HEMATOPOIETIC SYSTEM: LYMPHOCYTIC LEUKEMIA, LEUKEMIA, THYMUS GLAND: LEUKEMIA, ZYMBAL GLAND: TUMOR, OVARY: TUMOR, Tumor Site: Type of Lesion: HEMATOPOIETIC SYSTEM: LYMPHOCYTIC LEUKEMIA, LEUKEMIA, THYMUS GLAND: LEUKEMIA, ZYMBAL GLAND: TUMOR, OVARY: TUMOR) was “active; positive”. For the same compound, the carcinogen call (Species: MOUSE, Strain/Sex: C57BL/MALE, Route: INHALATION, Dose: 0, 300 PPM 6HR/D, 5D/WK FOR 1 WK FOLLOWED BY 2 WK NO TREATMENT, CYCLE REPEATED FOR LIFESPAN (STUDY DURATION: LIFESPAN), Tumor Site: Type of Lesion: LUNG: ADENOMA, HEMATOPOIETIC SYSTEM: LEUKEMIA OR LYMPHOMA, ZYMBAL GLAND: CARCINOMA, Tumor Site: Type of Lesion: LUNG: ADENOMA, HEMATOPOIETIC SYSTEM: LEUKEMIA OR LYMPHOMA, ZYMBAL GLAND: CARCINOMA) was “active; positive”, the carcinogen call (Species: MOUSE, Strain/Sex: C57BL/MALE, Route: INHALATION, Dose: 0, 300 PPM 6 HR/D, 5 D/WK FOR LIFE, Tumor Site: Type of Lesion: HEMATOPOIETIC SYSTEM: LYMPHOCYTIC LYMPHOMA) was “active; positive” and the carcinogen call (Species: MOUSE, Strain/Sex: C57BL/MALE, Route: INHALATION, Dose: 0, 1200 PPM 6HR/D, 5D/WK FOR 10 WK (STUDY DURATION: LIFESPAN)) was “inactive; negative”. For the same compound, the carcinogen call (Species: MOUSE, Strain/Sex: CBA/CA BNL/FEMALE, Route: INHALATION, Dose: 0, 300 PPM 6 HR/D 5 D/WK FOR 16 WK (STUDY DURATION: >1100 D), Tumor Site: Type of Lesion: HEMATOPOIETIC SYSTEM: MYELOGENOUS NEOPLASM) was “active; positive”, the carcinogen call (Species: MOUSE, Strain/Sex: CBA/CA BNL/MALE, Route: INHALATION, Dose: 0, 100, 300 PPM 6 HR/D 5 D/WK FOR 16 WK (STUDY DURATION: >1100 D), Dose: 0, 100, 300 PPM 6 HR/D 5 D/WK FOR 16 WK (STUDY DURATION: >1100 D), Tumor Site: Type of Lesion: HEMATOPOIETIC SYSTEM: MYELOGENOUS NEOPLASM) was “active; positive” and the carcinogen call (Species: MOUSE, Strain/Sex: CBA/MALE, Route: INHALATION, Dose: 0, 300 PPM 6 HR/D 5 D/WK FOR 16 WK (STUDY DURATION: 22 MO), Tumor Site: Type of Lesion: LYMPHATIC SYSTEM: MALIGNANT LYMPHOMA, PREPUTIAL GLAND: SQUAMOUS CELL CARCINOMA, LUNG: ADENOMA, Tumor Site: Type of Lesion: LYMPHATIC SYSTEM: MALIGNANT LYMPHOMA, PREPUTIAL GLAND: SQUAMOUS CELL CARCINOMA, LUNG: ADENOMA) was “active; positive”. For the same compound, the carcinogen call (Species: MOUSE, Strain/Sex: CD-1/MALE, Route: INHALATION, Dose: 0, 300 PPM 6HR/D, 5D/WK FOR 1 WK FOLLOWED BY 2 WK NO TREATMENT, CYCLE REPEATED FOR LIFESPAN (STUDY DURATION: LIFESPAN), Tumor Site: Type of Lesion: LUNG: ADENOMA, HEMATOPOIETIC SYSTEM: LEUKEMIA OR LYMPHOMA, ZYMBAL GLAND: CARCINOMA, Tumor Site: Type of Lesion: LUNG: ADENOMA, HEMATOPOIETIC SYSTEM: LEUKEMIA OR LYMPHOMA, ZYMBAL GLAND: CARCINOMA) was “active; positive”, the carcinogen call (Species: MOUSE, Strain/Sex: CD-1/MALE, Route: INHALATION, Dose: 0, 1200 PPM 6HR/D, 5D/WK FOR 10 WK (STUDY DURATION: LIFESPAN), Tumor Site: Type of Lesion: LUNG: ADENOMA, HEMATOPOIETIC SYSTEM: LEUKEMIA OR LYMPHOMA, ZYMBAL GLAND: CARCINOMA, Tumor Site: Type of Lesion: LUNG: ADENOMA, HEMATOPOIETIC SYSTEM: LEUKEMIA OR LYMPHOMA, ZYMBAL GLAND: CARCINOMA) was “active; positive” and the carcinogen call (Species: MOUSE, Strain/Sex: EU-PIM-1/FEMALE, Route: GAVAGE, Dose: 0, 50, 100 MG/KG 1/D FOR 40 WK (STUDY DURATION: 40 WK), Dose: 0, 50, 100 MG/KG 1/D FOR 40 WK (STUDY DURATION: 40 WK)) was “inactive; negative”. For the same compound, the carcinogen call (Species: MOUSE, Strain/Sex: EU-PIM-1/MALE, Route: GAVAGE, Dose: 0, 50, 100 MG/KG 1/D FOR 40 WK (STUDY DURATION: 40 WK), Dose: 0, 50, 100 MG/KG 1/D FOR 40 WK (STUDY DURATION: 40 WK)) was “inactive; negative”, the carcinogen call (Species: MOUSE, Strain/Sex: SWISS/FEMALE, Route: GAVAGE, Dose: 0, 500 MG/KG IN OLIVE OIL 1/D FOR 4 TO 5 D/WK FOR 78 WK (STUDY DURATION: LIFETIME), Tumor Site: Type of Lesion: MAMMARY GLAND: CARCINOMA, LUNG: TUMORS, ZYMBAL GLAND: CARCINOMA, Tumor Site: Type of Lesion: MAMMARY GLAND: CARCINOMA, LUNG: TUMORS, ZYMBAL GLAND: CARCINOMA) was “active; positive” and the carcinogen call (Species: MOUSE, Strain/Sex: SWISS/FEMALE, Route: INTRAGASTRIC, Dose: 0, 500 MG/KG IN OLIVE OIL 1/D 4-5 D/WK FOR 78 WK (STUDY DURATION: LIFESPAN), Tumor Site: Type of Lesion: LUNG: ADENOMA, MAMMARY GLAND: MALIGNANT TUMOR) was “active; positive”. The carcinogen call (Species: MOUSE, Strain/Sex: SWISS/FEMALE, Route: INTRAPERITONEAL, Dose: 0, 36.1, 137.3 UMOL ADMINISTERED AS 3 UNEQUAL DOSES (1/7, 2/7, AND 4/7 OF THE TOTAL DOSE) OVER A 2-WK PERIOD (STUDY DURA, Dose: 0, 36.1, 137.3 UMOL ADMINISTERED AS 3 UNEQUAL DOSES (1/7, 2/7, AND 4/7 OF THE TOTAL DOSE) OVER A 2-WK PERIOD (STUDY DURA) was “inactive; negative”, the carcinogen call (Species: MOUSE, Strain/Sex: SWISS/MALE, Route: GAVAGE, Dose: 0, 500 MG/KG IN OLIVE OIL 1/D FOR 4 TO 5 D/WK FOR 78 WK (STUDY DURATION: LIFETIME), Tumor Site: Type of Lesion: LUNG: TUMOR, ZYMBAL GLAND: CARCINOMA) was “active; positive” and the carcinogen call (Species: MOUSE, Strain/Sex: SWISS/MALE, Route: INTRAGASTRIC, Dose: 0, 500 MG/KG IN OLIVE OIL 1/D 4-5 D/WK FOR 78 WK (STUDY DURATION: LIFESPAN), Tumor Site: Type of Lesion: ZYMBAL GLAND: CARCINOMA, LUNG: ADENOMA) was “active; positive”. The carcinogen call (Species: MOUSE, Strain/Sex: SWISS/MALE, Route: INTRAPERITONEAL, Dose: 0, 36.1, 137.3 UMOL ADMINISTERED AS 3 UNEQUAL DOSES (1/7, 2/7, AND 4/7 OF THE TOTAL DOSE) OVER A 2-WK PERIOD (STUDY DURA, Dose: 0, 36.1, 137.3 UMOL ADMINISTERED AS 3 UNEQUAL DOSES (1/7, 2/7, AND 4/7 OF THE TOTAL DOSE) OVER A 2-WK PERIOD (STUDY DURA) was “inactive; negative” and the carcinogen call (Species: Mouse, Strain/Sex: C57BL/6 (heterozygous Trp53-deficient)/Male, Route: Inhalation, Dose: 0, 33, 100, 300 ppm 6 hr/d, 5 d/wk for 26 wks, then no exposure for lifetime, Dose: 0, 33, 100, 300 ppm 6 hr/d, 5 d/wk for 26 wks, then no exposure for lifetime, Tumor Site: Type of Lesion: Blood: hematopoietic neoplasms (38, 41, 36, 89%). Lymphoid tissue: thymic lymphoma (0, 4,16, 73%)) was “active; positive (highest dose)”.

— PubChem BioAssay AID1259411 (Chemical Carcinogenesis Research Information System (CCRIS), 2018)
